Data: ChEMBL document CHEMBL1146811, “Specific inhibition effects of N-pentafluorobenzyl-1-deoxynojirimycin on human CD4+ T cells” (Bioorg Med Chem Lett, 2004)

Assay: Effect on proliferation of human peripheral blood mononuclear cells (PMBC) at 72 hr using MTT assay
Assay type: functional

Structure (SMILES) | IC50
OCC1C(O)C(O)C(O)CN1Cc1c(F)c(F)c(F)c(F)c1F (configuration not stated) | 20.2 µM
OC[C@H]1NC[C@H](O)[C@@H](O)[C@@H]1O [DUVOGLUSTAT] | 25.6 µM
